This note sets out measurements from patent US4966891A, “Fluorocytidine derivatives” (priority 1987, dated 1990).

In the first experiment the test system is Sarcoma 180. The experiment can be described thus: Antitumor testing against Sarcoma 180 (oral, s.c. implanted). Format: in vivo, mice. The conditions noted are these: Mus musculus, 336 h, 0.5 mmole/kg/day × 7, p.o., day 14, read-out: Inhibition of tumor growth. How it is done:
(§1) Sarcoma 180 cells (2×10^6 cells) were implanted subcutaneously into mice (20-22 g) on day 0. The compounds of the present invention were administered daily from day 1 through 7 orally. The animals were sacrificed on day 14 and tumors were excised and weighed. The percent inhibition of tumor growth given in Table 1 below was calculated from the formula:
(§2) T=weight of the tumors from the treated group, C=weight of the tumors from the control group.
Turning to `CCCCCCCCC(=O)Nc1nc(=O)n([C@@H]2O[C@H](C)[C@@H](O)[C@H]2O)cc1F` [Example 6, 5'-deoxy-5-fluoro-N^4-nonanoylcytidine], the inhibition in vivo at 500 µmol/kg was determined as 28%.

Staying with this experiment, now noted: Mus musculus, 336 h, 0.8 mmole/kg/day × 7, p.o., day 14, read-out: Inhibition of tumor growth.
Regarding `C[C@H]1O[C@@H](n2cc(F)c(NC(=O)C3CC3)nc2=O)[C@H](O)[C@@H]1O` [Example 11, N^4-cyclopropanecarbonyl-5'-deoxy-5-fluorocytidine], the inhibition in vivo at 800 µmol/kg amounted to 69%.
`C[C@H]1O[C@@H](n2cc(F)c(NC(=O)/C=C/c3ccccc3)nc2=O)[C@H](O)[C@@H]1O` [Example 15, N^4-cinnamoyl-5'-deoxy-5-fluorocytidine]: the inhibition in vivo at 800 µmol/kg came to 47%.

Still in this experiment, the particulars now being: Mus musculus, 336 h, 1.3 mmole/kg/day × 7, p.o., day 14, read-out: Inhibition of tumor growth.
As for `Cc1ccc(C(=O)Nc2nc(=O)n([C@@H]3O[C@H](C)[C@@H](O)[C@H]3O)cc2F)cc1` [Example 17], the inhibition in vivo at 1300 µmol/kg was 75%.

Staying with this experiment, now noted: Mus musculus, 336 h, 1.4 mmole/kg/day × 7, p.o., day 14, read-out: Inhibition of tumor growth.
Regarding `CCCCCCCCCCCCCCCCCC(=O)Nc1nc(=O)n([C@@H]2O[C@H](C)[C@@H](O)[C@H]2O)cc1F` [Example 8, 5'-deoxy-5-fluoro-N^4-octadecanoylcytidine], the inhibition in vivo at 1400 µmol/kg was determined as 20%.
The same measure, in the same setting: under `CCCCCCCCCCCCCCCC(=O)Nc1nc(=O)n([C@@H]2O[C@H](C)[C@@H](O)[C@H]2O)cc1F` [Example 7, 5'-deoxy-5-fluoro-N^4-hexadecanoylcytidine] stands 57%.

Still in this experiment, the particulars now being: Mus musculus, 336 h, 1.5 mmole/kg/day × 7, p.o., day 14, read-out: Inhibition of tumor growth.
As for `C[C@H]1O[C@@H](n2cc(F)c(NC(=O)C3CC3)nc2=O)[C@H](O)[C@@H]1O` [Example 11, N^4-cyclopropanecarbonyl-5'-deoxy-5-fluorocytidine], the inhibition in vivo at 1500 µmol/kg came out at 90%.
`CCCCCCCCC(=O)Nc1nc(=O)n([C@@H]2O[C@H](C)[C@@H](O)[C@H]2O)cc1F` [Example 6, 5'-deoxy-5-fluoro-N^4-nonanoylcytidine]: the inhibition in vivo at 1500 µmol/kg is 76%.
Consider `CC(=O)Nc1nc(=O)n([C@@H]2O[C@H](C)[C@@H](O)[C@H]2O)cc1F` [Example 2, N^4-acetyl-5'-deoxy-5-fluorocytidine], for which the inhibition in vivo at 1500 µmol/kg was 84%.
Still for that read-out and setting: under `C[C@H]1O[C@@H](n2cc(F)c(NC(=O)/C=C/c3ccccc3)nc2=O)[C@H](O)[C@@H]1O` [Example 15, N^4-cinnamoyl-5'-deoxy-5-fluorocytidine] stands 62%.
With `C[C@H]1O[C@@H](n2cc(F)c(NC(=O)C(C)(C)C)nc2=O)[C@H](O)[C@@H]1O` [Example 10, 5'-deoxy-5-fluoro-N^4-pivaloylcytidine], the inhibition in vivo at 1500 µmol/kg came out at 74%.

Staying with this experiment, now noted: Mus musculus, 336 h, 2.6 mmole/kg/day × 7, p.o., day 14, read-out: Inhibition of tumor growth.
With `Cc1ccc(C(=O)Nc2nc(=O)n([C@@H]3O[C@H](C)[C@@H](O)[C@H]3O)cc2F)cc1` [Example 17], the inhibition in vivo at 2600 µmol/kg turned out to be 92%.

The same experiment, now with this note: Mus musculus, 336 h, 2.7 mmole/kg/day × 7, p.o., day 14, read-out: Inhibition of tumor growth.
On to `CCCCCCCCCCCCCCCCCC(=O)Nc1nc(=O)n([C@@H]2O[C@H](C)[C@@H](O)[C@H]2O)cc1F` [Example 8, 5'-deoxy-5-fluoro-N^4-octadecanoylcytidine], for which the inhibition in vivo at 2700 µmol/kg came out at 77%.
For `CCCCCCCCCCCCCCCC(=O)Nc1nc(=O)n([C@@H]2O[C@H](C)[C@@H](O)[C@H]2O)cc1F` [Example 7, 5'-deoxy-5-fluoro-N^4-hexadecanoylcytidine], the inhibition in vivo at 2700 µmol/kg was 84%.

Staying with this experiment, now noted: Mus musculus, 336 h, 3.0 mmole/kg/day × 7, p.o., day 14, read-out: Inhibition of tumor growth.
`CC(=O)Nc1nc(=O)n([C@@H]2O[C@H](C)[C@@H](O)[C@H]2O)cc1F` [Example 2, N^4-acetyl-5'-deoxy-5-fluorocytidine]: the inhibition in vivo at 3000 µmol/kg was determined as 91%.
Regarding `C[C@H]1O[C@@H](n2cc(F)c(NC(=O)C(C)(C)C)nc2=O)[C@H](O)[C@@H]1O` [Example 10, 5'-deoxy-5-fluoro-N^4-pivaloylcytidine], the inhibition in vivo at 3000 µmol/kg came to 97%.

For the next experiment, the system named is Meth A fibrosarcoma. The experiment is described as follows: Antitumor testing against Meth A fibrosarcoma (oral, s.c. implanted). The format is in vivo, mice. The conditions noted are these: Mus musculus, 0.8 mmole/kg/day × 7, p.o., read-out: Inhibition of tumor growth. How it is done: as §1, §2
Meth A fibrosarcoma cells (2×10^5 cells) were implanted subcutaneously into mice (21-22 g). The testing against Meth A fibrosarcoma and the calculation of the percent inhibition of tumor growth were effected according to a manner analogous to that of the testing against Sarcoma 180.
Consider `C[C@H]1O[C@@H](n2cc(F)c(NC(=O)c3ccc4c(c3)OCO4)nc2=O)[C@H](O)[C@@H]1O` [Example 48, 5'-deoxy-5-fluoro-N^4-piperonyloylcytidine], for which the inhibition in vivo at 800 µmol/kg came to 42%.
Turning to `C[C@H]1O[C@@H](n2cc(F)c(NC(=O)c3ccccc3)nc2=O)[C@H](O)[C@@H]1O` [Example 16, N^4-benzoyl-5'-deoxy-5-fluorocytidine], the inhibition in vivo at 800 µmol/kg came to 38%.
The same measure, in the same setting: under `C[C@H]1O[C@@H](n2cc(F)c(NC(=O)CCc3ccccc3)nc2=O)[C@H](O)[C@@H]1O` [Example 52] stands 41%; under `C[C@H]1O[C@@H](n2cc(F)c(NC(=O)c3ccc4ccccc4c3)nc2=O)[C@H](O)[C@@H]1O` [Example 40, 5'-deoxy-5-fluoro-N^4-(2-naphthoyl)cytidine], 41%.
Still for that read-out and setting: under `C[C@H]1O[C@@H](n2cc(F)c(NC(=O)c3ccc(F)cc3)nc2=O)[C@H](O)[C@@H]1O` [Example 23, 5'-deoxy-5-fluoro-N^4-(4-fluorobenzoyl)cytidine] stands 56%; under `C[C@H]1O[C@@H](n2cc(F)c(NC(=O)c3cccc(Cl)c3)nc2=O)[C@H](O)[C@@H]1O` [Example 21], 17%.

Still in this experiment, the particulars now being: Mus musculus, 1.5 mmole/kg/day × 7, p.o., read-out: Inhibition of tumor growth.
As to `COc1ccccc1C(=O)Nc1nc(=O)n([C@@H]2O[C@H](C)[C@@H](O)[C@H]2O)cc1F` [Example 25], the inhibition in vivo at 1500 µmol/kg is -6%.
The same measure, in the same setting: under `COc1cc(OC)cc(C(=O)Nc2nc(=O)n([C@@H]3O[C@H](C)[C@@H](O)[C@H]3O)cc2F)c1` [Example 27] stands 58%; under `C=CCC(=O)Nc1nc(=O)n([C@@H]2O[C@H](C)[C@@H](O)[C@H]2O)cc1F` [Example 49, N^4-(3-butenoyl)-5'-deoxy-5-fluorocytidine], 58%; under `C[C@H]1O[C@@H](n2cc(F)c(NC(=O)c3ccc4c(c3)OCO4)nc2=O)[C@H](O)[C@@H]1O` [Example 48, 5'-deoxy-5-fluoro-N^4-piperonyloylcytidine], 72%.
For the compound `C[C@H]1O[C@@H](n2cc(F)c(NC(=O)c3ccccc3)nc2=O)[C@H](O)[C@@H]1O` [Example 16, N^4-benzoyl-5'-deoxy-5-fluorocytidine], the inhibition in vivo at 1500 µmol/kg is 58%.
With `C[C@H]1O[C@@H](n2cc(F)c(NC(=O)CCc3ccccc3)nc2=O)[C@H](O)[C@@H]1O` [Example 52], the inhibition in vivo at 1500 µmol/kg came to 51%.
`C[C@H]1O[C@@H](n2cc(F)c(NC(=O)c3ccc4ccccc4c3)nc2=O)[C@H](O)[C@@H]1O` [Example 40, 5'-deoxy-5-fluoro-N^4-(2-naphthoyl)cytidine]: the inhibition in vivo at 1500 µmol/kg turned out to be 57%.
The same measure, in the same setting: under `C[C@H]1O[C@@H](n2cc(F)c(NC(=O)c3ccc(F)cc3)nc2=O)[C@H](O)[C@@H]1O` [Example 23, 5'-deoxy-5-fluoro-N^4-(4-fluorobenzoyl)cytidine] stands 64%; under `C[C@H]1O[C@@H](n2cc(F)c(NC(=O)c3cccc(Cl)c3)nc2=O)[C@H](O)[C@@H]1O` [Example 21], 60%.

The same experiment, now with this note: Mus musculus, 3.0 mmole/kg/day × 7, p.o., read-out: Inhibition of tumor growth.
On to `COc1ccccc1C(=O)Nc1nc(=O)n([C@@H]2O[C@H](C)[C@@H](O)[C@H]2O)cc1F` [Example 25], for which the inhibition in vivo at 3000 µmol/kg was 34%.
Take `COc1cc(OC)cc(C(=O)Nc2nc(=O)n([C@@H]3O[C@H](C)[C@@H](O)[C@H]3O)cc2F)c1` [Example 27]: the inhibition in vivo at 3000 µmol/kg is 91%.
Same read-out and setting: under `C=CCC(=O)Nc1nc(=O)n([C@@H]2O[C@H](C)[C@@H](O)[C@H]2O)cc1F` [Example 49, N^4-(3-butenoyl)-5'-deoxy-5-fluorocytidine] stands 76%.
